Values joined by “and” are separate entries in the source; they are usually repeats but may differ in a detail not shown here. Equal entries are not always repeated. Structures can show the parent of a compound that is named as a salt.
Legend:
[1] = tested on: NADPH-Induced Lipid Peroxidation in Brain Microsomes; assay: NADPH-induced (enzymatic) lipid peroxidation in brain microsomes (AEI); assay type: biochemical, rat (male Hannover-Wistar); settings: for IC50: NADPH-induced lipid peroxidation, rat brain microsomes, 37° C., 20 minutes, pH 6.8; for inhibition of NADPH-induced lipid peroxidation relative to silymarin (times as strongly): compared with silymarin; for antioxidant effect in NADPH-induced lipid peroxidation, in words: comparison with reference compounds
Protocol: Effect on the NADPH-Induced Lipid Peroxidation in Brain Microsomes
Male Hannover-Wistar rats with a body weight of 150-250 g were used for the preparation of microsomes. After decapitation, the whole brain was removed and homogenized in a 10-fold volume of ice-cold 0.25 M saccharose solution. The homogenate was centrifuged in a Hitachi CR 26H equipment at 15000 g at 4° C. for 10 minutes, then the supernatant was collected and centrifuged in a Hitachi SCP 85H apparatus at 78000 g at 4° C. for 60 minutes. After suspending the precipitate in 0.15 M KCl solution, the protein content of the obtained solution was determined and then adjusted to 10 mg/ml concentration. The microsome thus obtained was frozen in a dry ice-acetone mixture and stored at -70° C. until use. The components of the incubation mixture were: 50 mM TRIS-HCl (pH 6.8), 0.2 mM FeCl3, 1 mM KH2 PO4, 0.5 mM ADP, 0.2 mg of microsomes as well as the compound to be tested. The incubation was carried out with a final volume of 1 ml and with an incubation time of 20 minutes at a temperature of 37° C. The lipid peroxidation was induced by adding 0.4 mM NADPH.
The formation of malondialdehyde was determined by using thiobarbituric acid. After stopping the reaction, 1 ml of 1% thiobarbituric acid solution each was weighed to the samples, which were then placed in a water bath of about 100° C. for 10 minutes. Subsequently, the samples were centrifuged at 2000 g in a Janetzki K70 apparatus at 4° C. for 10 minutes. The absorbance values of the colored supernatant were measured at 535 nm in a Hitachi 150-20 spectrophotometer. Malondialdehyde bis(diethylacetal) was used as reference compound.

[2] = Diazepam-induced anterograde amnesia (passive avoidance); assay type: in vivo, NMRI mice; settings: for Inhibition of the diazepam-induced amnesia %: 1 hour before learning, diazepam 3 mg/kg i.p.; for antiamnesic activity, in words: diazepam-induced anterograde amnesia, 0.1 and 10 mg/kg p.o.
Description: 2. Diazepam-Induced Anterograde Amnesia C. L. Broekkamp et al.: The comparative effects of benzodiazepines, progabide and PK 9084 on acquisition of passive avoidance in mice [Psychopharmacology (Berlin) 83, 122-125 (1984)]. The memory test was accomplished on NMRI mice weighing 25 to 28 g each by using the passive avoidance, a method based on the genetically determined nyctophilic behavior of rodents. During the learning period, the pre-selected animals (mice entering the dark space from the illuminated space within 30 seconds) were placed in an illuminated space. After entering the dark space, the animal received an electric shock (1 mA for […]) onto its planta within 30 seconds, then the time until entry to the dark space (latency period) was registered. After 24 hours, the animals were placed again in the illuminated space and the time until crossing over to the dark space (retention time=T with a time limit of 300 seconds) was measured. For inducing an anterograde amnesia, the animals were treated intraperitoneally with 3 mg/kg of diazepam 30 minutes before learning. The compounds were administered orally in 0.1 or 10 mg/kg doses, respectively 1 hour before learning. [formula]

[3] = tested on: Fe^2+ -Induced Lipid Peroxidation in Brain Homogenate; assay: Fe^2+-induced (non-enzymatic) lipid peroxidation in brain homogenate (ANI); assay type: biochemical, rat (Hannover-Wistar); settings: for IC50: Fe^2+-induced lipid peroxidation, rat brain homogenate, 37° C., 20 minutes, pH 7.4; for antioxidant activity in Fe^2+-induced lipid peroxidation, in words: comparison with idebenone, DL-α-tocopherol or silymarin
Protocol: Effect on the Fe^2+ -Induced Lipid Peroxidation in Brain Homogenate
After decapitating Hannover-Wistar rats weighing 150-220 g each, the whole brain was homogenized in 9 volumes of ice-cold Krebs-Ringer's buffer containing 15 mM HEPES, (4-(2-hydroxyethyl)-1-piperazinylethanesulfonic acid) (pH 7.4), 140 mM NaCl7 3.6 mM KCl, 1.5 mM CaCl2, 0.7 mM MgCl2, 1.4 mM KH2 PO4 and 10 glucose. Then the protein content of the solution was determined and adjusted to 10 mg/ml concentration.
After adding the inhibitory agent to be tested in a volume of 5 μl to 200 μl of the homogenate, the incubation mixture was incubated at 37° C. for 20 minutes. The Fe^2+ -induced lipid peroxidation was accomplished by adding 5 μl of 8 mM Fe2 (NH4)2 (SO4)2 solution. After passing of the incubation time, the reaction was stopped by adding 1 ml of a stopping solution containing 0.8 M HCl and 12.5% trichloroacetic acid, then the samples were centrifuged at 2000 g in a Janetzki K70 apparatus at 4° C. for 10 minutes.
To a 0.5 ml portion of the supernatant, 1 ml of 1% thiobarbituric acid solution was added, then the samples were placed in a water bath of 100° C. for 20 minutes. The color intensity developed was determined at 535 nm with a Hitachi 150-20 spectrophotometer by using malondialdehyde bis(diethylacetal) as reference compound.
ANI: non-enzymatically (Fe^2+) induced lipid peroxidation test

[4] = Antiischemic effect on bilateral (carotid) artery ligation model, mortality; assay type: in vivo, mice; settings: for mortality at 2 mg/kg / ED50: Mus musculus, ip; for mortality at 2 mg/kg: 24 h, 30 minutes before 5-minute bilateral carotid ligation, control mortality 70%; for mortality at 2 mg/kg / antiischemic activity, in words: 2 mg/kg i.p.; for ED50: dose diminishing the mortality by 50% in comparison to the untreated control group; for antiischemic activity, in words: bilateral artery ligation, mice
Protocol: 1. Antiischemic Effect (On Bilateral Artery Ligation Model)
N. Himori et al.: Cerebral ischemia model with conscious mice involvement of NMDA receptor activation and derangement of learning and memory ability [J. Pharmacol. Meth. 23, 311-327 (1990)].
Carotid arteries of mice (weighing 30 to 32 g each) were exposed bilaterally under anaesthesia by 450 mg/kg of intraperitoneal (i.p.) chloral hydrate. The sympathetic and vagal nerves were separated and a loose ligation was bilaterally placed below the carotid arteries. Both ends of the ligation were led out on the back, behind the ears. Next day, in conscious state both ends of the ligation were pulled resulting in the stopping of blood supply through the carotid arteries. This was maintained for 5 minutes, then released to provide the reperfusion. The number of animals died during the 5-minute period and the following 24 hours were registered. The calculation of significance was performed by the chi^2 test. The pre-treatment with the compound was carried out intraperitoneally (i.p.) 30 minutes before the ligation.
The transient dramatic decrease in the cerebral blood supply, then the starting of reperfusion after stopping the ligation leads to the formation of extremely toxic oxygen free radicals (superoxide radical, hydrogen peroxide). […] [ED50 is the dose (as mg/kg) diminishing the mortality by 50% in comparison to the untreated is control group].

Compound | IC50 [1] | inhibition of NADPH-induced lipid peroxidation relative to silymarin (times as strongly) [1] | Inhibition of the diazepam-induced amnesia % ([2]; 0.1 mg/kg p.o.) [%] | Inhibition of the diazepam-induced amnesia % ([2]; 10.0 mg/kg p.o.) [%] | IC50 [3] | antioxidant activity in Fe^2+-induced lipid peroxidation, in words [3] | mortality at 2 mg/kg [4] [%] | antioxidant effect in NADPH-induced lipid peroxidation, in words [1] | ED50 [4] [mg/kg] | antiischemic activity, in words [4] | antiamnesic activity, in words [2]
CC[C@]12C=C(C(=O)OCCOC(=O)c3ccccc3)n3c4c(c5ccccc53)CCN(CCC1)[C@H]42 [Compound 1011036, (-)-trans apovincaminic acid 2-(benzoyloxy)ethyl ester(3α,16β)hydrochloride] | 7.7 µM and < 10 µM | about 20 times | 23 | 16 | 9.3 µM and < 10 µM | about twice as active as idebenone or DL-α-tocopherol | 50 |  |  |  | 
CCC(=O)OCCOC(=O)C1=C[C@]2(CC)CCCN3CCc4c(n1c1ccccc41)[C@H]32 [Compound 1010962, (-)-trans apovincaminic acid 2-(propionyloxyethyl)ester(3β,16α)hydrochloride] | 7.5 µM and < 10 µM | about 20 times | 16 | 4 | 5.7 µM and < 10 µM | about twice as active as idebenone or DL-α-tocopherol | 40 |  |  |  | 
CC[C@@]12C=C(C(=O)OCCOC(=O)c3cccs3)n3c4c(c5ccccc53)CCN(CCC1)[C@@H]42 [Compound 2705283, (-)-trans apovincaminic acid 2-(2-thiophenoyloxi)ethyl ester(3β,16α)monohydrochloride] | 11.2 µM | about 20 times |  |  | 6.8 µM | about twice as active as idebenone or DL-α-tocopherol |  |  |  |  | 
CC[C@@]12C=C(C(=O)OCCOC(=O)c3ccc(Cl)cc3)n3c4c(c5ccccc53)CCN(CCC1)[C@@H]42 [Compound 1010961, (-)-trans apovincaminic acid 2-(4-chlorobenzoyloxy)ethyl ester(3β,16α)methanesulfonate] | 5.9 µM and < 10 µM |  | 3 | 15 | 5.3 µM and < 10 µM | about twice as active as idebenone or DL-α-tocopherol | 60 | comparable to that of idebenone |  |  | 
CC[C@@]12C=C(C(=O)OCCOC(=O)c3ccccc3)n3c4c(c5ccccc53)CCN(CCC1)[C@@H]42 [Compound 1010960, (-)-trans apovincaminic acid 2-(benzoyloxy)ethyl ester(3β,16α)hydrochloride] | 7.4 µM and < 10 µM | about 20 times | 0 | 0 | 5.7 µM and < 10 µM | about twice as active as idebenone or DL-α-tocopherol | 10 to 30 |  |  |  | 
CC[C@@]12C=C(C(=O)OCCOC(=O)c3ccc([N+](=O)[O-])cc3)n3c4c(c5ccccc53)CCN(CCC1)[C@@H]42 [Compound 2705284, (-)-trans apovincaminic acid 2-(4-nitrobenzoyloxy)ethyl ester(3β,16α)] | 20.4 µM |  |  |  | 6.8 µM | about twice as active as idebenone or DL-α-tocopherol |  |  |  |  | 
CC[C@@]12C=C(C(=O)OCCOC(=O)c3cc(OC)c(OC)c(OC)c3)n3c4c(c5ccccc53)CCN(CCC1)[C@@H]42 [Compound 1011005, (-)-trans apovincaminic acid 2-(3,4,5-trimethoxybenzoyloxy)-ethyl ester(3β,16α)hydrochloride] | 10.3 µM | about 20 times |  |  | 11.9 µM |  | 70 |  |  |  | 
(-)-Bis-trans apovincaminic acid ethyleneglycol ester(3β,16β)dihydrochloride [Compound 1011008] | 6 µM |  |  |  | 21.2 µM | exceeded that of silymarin |  | comparable to that of idebenone |  |  | 
CC[C@]12C=C(C(=O)OCCOC(=O)c3ccc(Cl)cc3)n3c4c(c5ccccc53)CCN(CCC1)[C@H]42 [Compound 1011037, (+)-trans apovincaminic acid 2-(4-chloro-benzoyloxy)-ethyl ester(3α,16β)methanesulfonate] | 3.2 µM |  |  |  | 11.4 µM |  | 50 | comparable to that of idebenone |  |  | 
CCOC(=O)C1=C[C@]2(CC)CCCN3CCc4c(n1c1ccccc41)[C@@H]32 [Vinpocetine, reference compound] |  |  | 0 | 123 |  |  |  |  |  |  | 
CC[C@]12C=C(C(=O)OCCOC(=O)c3cc(OC)c(OC)c(OC)c3)n3c4c(c5ccccc53)CCN(CCC1)[C@H]42 [Compound 1011047, (+)-trans apovincaminic acid 2-(3,4,5-trimethoxybenzoyloxy)ethyl ester(3α,16β)] | 5.9 µM |  |  |  | 16.1 µM | more strongly than idebenone | 50 | comparable to that of idebenone |  |  | 
Cc1c(C)c2c(c(C)c1O)CCC(C)(CCCC(C)CCCC(C)CCCC(C)C)O2 (racemic) [Vitamin E, 2,5,7,8-tetramethyl-2-(4',8',12'-trimethyltridecyl)-6-chromanol, reference compound] | 406 µM |  |  |  | 12.1 µM |  | 70 |  | 17.8 | less active in the same dose | 
CC[C@]12C=C(C(=O)OCCO)n3c4c(c5ccccc53)CCN(CCC1)[C@H]42 [Compound 1010887, (+)-trans apovincaminic acid 2-hydroxyethyl ester(3α,16β)] | 12.6 µM | about 20 times | 50 | 56 | 7.2 µM | about twice as active as idebenone or DL-α-tocopherol |  |  |  |  | particularly effective
CC[C@]12C=C(C(=O)OCCOC(C)=O)n3c4c(c5ccccc53)CCN(CCC1)[C@H]42 [Compound 1010886, (+)-trans apovincaminic acid 2-(acetoxy)ethyl ester(3α,16β)hydrochloride] | 7.6 µM and < 10 µM | about 20 times | 72 | 44 | 7.7 µM and < 10 µM | about twice as active as idebenone or DL-α-tocopherol |  |  |  |  | particularly effective
COC1=C(OC)C(=O)C(CCCCCCCCCCO)=C(C)C1=O [Idebenone, 6-(10-hydroxydecyl)-2,3-dimethoxy-5-methyl-1,4-benzoquinone, reference compound] | 1.2 µM |  |  |  | 18.9 µM |  | 40 |  | 4.5 | less active in the same dose | 

Source: US6093720A, “Trans apovincaminic acid ester derivatives” (Richter Gedeon Vegyeszeti GmbH, priority 1995, dated 2000)
